Counter-ions that a name gives are not always drawn.
How the values were obtained:
[1] = tested on: LS180; assay: Soft agar colony formation disk diffusion assay; format: cell-based, human
Summary of the method: (§1)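 Two-layer agar; upper 0.4% Noble agar/RPMI-1066 with cells, lower 0.8% agar + 0.8% Tryptic Soy Broth. Drug on 6.5 mm filter disk; 37 °C, 5% CO2, 10–20 d. Inhibition zone (disk edge to closest colony) read at 40× with eyepiece micrometer.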

[2] = tested on: MCF7/ADR; assay: Soft agar colony formation disk diffusion assay; format: cell-based, human
Summary of the method: as §1

[3] = tested on: MCF7; assay: Soft agar colony formation disk diffusion assay; format: cell-based, human
Summary of the method: as §1

[4] = tested on: MATB.WT; assay: Soft agar colony formation disk diffusion assay; format: cell-based, rat
Summary of the method: (§2)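 Anti-clonogenic activity is scored as the distance from the drug-loaded disk edge to the closest colony of more than 50 cells. Solid tumour and leukaemia lines are plated in separate dishes in two-layer soft agar and incubated 10-20 days at 37° C.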

[5] = tested on: MATB/ADR; assay: Soft agar colony formation disk diffusion assay; format: cell-based, rat
Summary of the method: as §2

[6] = tested on: B16; assay: Soft agar colony formation disk diffusion assay; format: cell-based, murine
Description: (§3) A more elaborate version of this fundamental assay, the soft agar colony formation disk diffusion assay was used. This assay defines the relative activity of one particular drug versus a tumoral cell line type. The effect of the test drug against tumoral cells could be measured by its inhibitory capacity against colony formation after the delivery of the compound, in different concentrations on an filter disk(4). A modified technique of this assay was used in order to investigate the antiproliferative activity of candidate compounds. Tumoral cells from solid tumors and ascitic lines were plated separately in a two layer agar matrix. Cell lines to be tested were suspended in an upper layer of 0.4% Noble agar (Difco#00142-01) in RPMI-1066 (Gibco#3201875) at a yield varying between 10^4 to 2×10^5 cells per 60 mm Petri dish. Plating efficiency was determined for each line in order to achieve an optimal number of colonies per dish. Plates were examined before drug administration to confirm a uniform dispersion of single cells. The bottom layer consisted of 0.8% Noble agar, 0.8% Tryptic Soy Broth (difco#0037001)in CMRL-1066/Fischer's. The bottom layers were used within 2 and 9 days of preparation. Plated dishes (bottom layer of agar, upper layer of cells and administered drug were incubated in humidified atmosphere at 37° C., 5% CO2 for 10-20 days depending upon the time necessary to observe adequate colonies (defined as a cell aggregate of more than 50 cells) both control and drug inhibited. Drugs were administered on a paper filter disk (Whatman No. 1) of 6.5 mm diameter placed on the upper layer at 1/3 distance from the edge of the dish. The anti-clonogenic activity of the compounds was measured as the zone of inhibition from the disk edge to the most proximal colonies. This zone of inhibition was checked on an inverted microscope (40×) and was measured with a micrometer mounted in the eyepiece. The ocular micrometer was calibrated with a stage micrometer set for a particular combination of ocular and objective lenses. […] We made a modification of the initial technique by not plating a solid tumor and a leukemia simultaneously in the same Petri dish. Anti-clonogenic tests performed on leukemia cell line have helped in the discovery of the majority of current clinically used cytostatic drugs. Our tests on solid tumor lines (animal or human) may help define active compounds with solid tumor specificity. […] Murine tumors were maintained IN VIVO in order to diminish the selection of subpopulations of cells normally present in the heterogenous IN VIVO tumor. The actual drug sensitivity assay was done IN VITRO. For these experiments cells from freshly excised tumors or from ascitic fluids were maintained in RPMI-1066. Both compounds were dissolved in DMSO (1 mg/100 ul) and brought to final volume (250 ul) with Millipore deionized sterile water. Further dilutions were made with […] volume of 25 ul of freshly prepared solution was placed on the filter disk and allowed to dry.

[7] = tested on: LL; assay: Soft agar colony formation disk diffusion assay; format: cell-based, murine
Description: as §3

[8] = tested on: M5076; assay: Soft agar colony formation disk diffusion assay; format: cell-based, murine
Description: as §3

[9] = tested on: P388/ADR; assay: Soft agar colony formation disk diffusion assay; format: cell-based, murine
Description: as §3

[10] = tested on: P388; assay: Soft agar colony formation disk diffusion assay; format: cell-based, murine
Description: as §3

[11] = tested on: SKVLB; assay: Microculture tetrazolium assay; format: cell-based; conditions: for VLB/OV3: IC50 ratio SKVLB/SKOV3; for IC50: SKVLB, read-out: IC50
[12] = tested on: LOX; assay: Microculture tetrazolium assay; format: cell-based; conditions: read-out: IC50

Molecule | zone of inhibition ([1]; 10 μg/DISK) | zone of inhibition ([1]; 100 μg/DISK) | zone of inhibition ([2]; 10 μg/DISK) | zone of inhibition ([2]; 100 μg/DISK) | zone of inhibition ([3]; 10 μg/DISK) | zone of inhibition ([3]; 100 μg/DISK) | zone of inhibition ([4]; 10 μg/DISK) | zone of inhibition ([4]; 100 μg/DISK) | zone of inhibition ([5]; 10 μg/DISK) | zone of inhibition ([5]; 100 μg/DISK) | zone of inhibition ([6]; 10 μg/DISK) | zone of inhibition ([6]; 100 μg/DISK) | zone of inhibition ([7]; 10 μg/DISK) | zone of inhibition ([7]; 100 μg/DISK) | zone of inhibition ([8]; 10 μg/DISK) | zone of inhibition ([8]; 100 μg/DISK) | zone of inhibition ([9]; 10 μg/DISK) | zone of inhibition ([9]; 100 μg/DISK) | zone of inhibition ([10]; 10 μg/DISK) | zone of inhibition ([10]; 100 μg/DISK) | further results
COC(=O)[C@H]1CC2=C(C(=O)c3c(cc4ccccc4c3O)C2=O)[C@H](O[C@H]2C[C@H](NC(=O)C(F)(F)F)[C@H](O)[C@H](C)O2)O1 (mixture of isomers) [BCH-692, (1'S,1S,3R) and (1'S,1R,3S) Methyl[11-hydroxy-1-(2',3',6'-trideoxy-3'-trifluoroacetamido-4'-hydroxy-L-lyxohexopyranose)-5,12-dioxo-3,4,5,12-tetrahydro-anthraceno[2,3-c]pyran-3-yl]formate] | 130.0 ± 12.5 Zone Units | 250.0 ± 8.4 Zone Units | 122.0 ± 10.0 Zone Units | 237.9 ± 8.6 Zone Units | 131.0 ± 12.7 Zone Units | 289.5 ± 22.0 Zone Units | 150.0 ± 18.5 Zone Units | 400.5 ± 100.0 Zone Units | 0 Zone Units | 180.0 ± 50.5 Zone Units | 0 Zone Units | 200.0 ± 55.0 Zone Units | 80.5 ± 20.5 Zone Units | 140.3 ± 40.5 Zone Units | 50.0 ± 25.5 Zone Units | 200.0 ± 100.0 Zone Units | 25.0 ± 10.0 Zone Units | 150.5 ± 50.0 Zone Units | 50.5 ± 10.9 Zone Units | 180.0 ± 50.6 Zone Units | cross resistance with adriamycin, MCF7/ADR vs MCF7 [2]: lack of cross resistance with adriamycin; VLB/OV3 [11]: 0.62; IC50 [11]: 1.77 µM; IC50 [12]: 3.89 µM
CCOC(=O)C1CC2=C(CO1)C(=O)c1cc3ccccc3c(O)c1C2=O (stereo not shown) [BCH-653, Ethyl(6 and 11 hydroxy-5,12-dioxo-3,4,5,12-tetrahydro-anthraceno[2,3-c]pyran-3-yl)]formate] | – | 35.5 ± 0.7 Zone Units | – | 91.5 ± 43.1 Zone Units | – | 106.1 ± 21.5 Zone Units | – | 0 Zone Units | – | 0 Zone Units | – | 0 Zone Units | – | 18.3 ± 0.0 Zone Units | – | 85.4 ± 25.8 Zone Units | – | 66.8 ± 8.2 Zone Units | – | 64.0 ± 4.2 Zone Units | –
CC(=O)Oc1c2c(c(O)c3ccccc13)C(=O)C1=C(CC(C(C)=O)OC1)C2=O (stereo not shown) [BCH-721] | 18.9 Zone Units | 122.0 ± 0.0 Zone Units | 91.0 ± 86.2 Zone Units | 183.0 ± 86.2 Zone Units | 55.0 ± 8.4 Zone Units | 167.0 ± 21.9 Zone Units | 33.0 ± 4.2 Zone Units | 143.0 ± 12.7 Zone Units | 45.5 ± 21.9 Zone Units | 137.0 ± 21.2 Zone Units | 76.0 ± 21.2 Zone Units | 198.0 ± 21.2 Zone Units | – | – | 78.0 ± 18.3 Zone Units | 259.0 ± 21.2 Zone Units | 21.0 ± 21.2 Zone Units | 183.0 ± 86.2 Zone Units | 45.5 ± 21.9 Zone Units | 137.0 ± 21.2 Zone Units | VLB/OV3 [11]: 0.55; IC50 [11]: 30.7 µM; IC50 [12]: 24.9 µM
Methyl(11-hydroxy-5,12-dioxo-3,4,5,12-tetrahydroanthraceno[2,3-c]pyran-3-yl)ketone and Methyl(5-hydroxy-5,12-dioxo-3,4,5,12-tetrahydroanthraceno[2,3-c]pyran-3-yl)ketone [BCH-687] | 152.5 ± 30.5 Zone Units | 233.8 ± 17.6 Zone Units | 61.0 ± 6.1 Zone Units | 140.0 ± 32.3 Zone Units | 71.1 ± 9.3 Zone Units | 152.5 ± 50.0 Zone Units | 42.7 ± 6.1 Zone Units | 97.6 ± 20.0 Zone Units | 69.1 ± 7.0 Zone Units | 101.6 ± 35.2 Zone Units | 34.6 ± 3.6 Zone Units | 70.1 ± 13.0 Zone Units | 62.8 ± 30.7 Zone Units | 182.6 ± 35.2 Zone Units | 0 Zone Units | 410.8 ± 46.5 Zone Units | 0 Zone Units | 153.6 ± 30.6 Zone Units | 81.3 ± 30.0 Zone Units | 183.0 ± 81.0 Zone Units | cross resistance with adriamycin, MCF7/ADR vs MCF7 [2]: lack of cross resistance with adriamycin
COC(=O)[C@@H]1CC2=C(C(=O)c3c(c(OC)c4ccccc4c3O)C2=O)[C@@H](O[C@H]2C[C@H](NC(=O)C(F)(F)F)[C@H](O)[C@H](C)O2)O1 (mixture of isomers) [BCH-674, (1'S,1S,3R) and 1'S,1R,3S) Methyl(11-hydroxy-6-methoxy-1-[2',3',6'-trideoxy-3-trifluoroacetamido-4'-hydroxy-L-lyxohexopyranose]-5,12-dioxo-3,4,5,12-tetrahydroanthra-ceno[2,3-c]pyran-3-yl) formate] | 0 Zone Units | 67.1 ± 8.6 Zone Units | 0 Zone Units | 339.6 ± 4.3 Zone Units | 0 Zone Units | 76.2 ± 21.6 Zone Units | 30.5 ± 13.0 Zone Units | 198.2 ± 21.5 Zone Units | 24.4 ± 8.6 Zone Units | 213.5 ± 25.8 Zone Units | 91.5 ± 60.3 Zone Units | 122.0 ± 86.2 Zone Units | 54.9 ± 8.6 Zone Units | 115.9 ± 8.0 Zone Units | – | – | 0 Zone Units | 150.0 ± 8.0 Zone Units | 30.5 ± 25.8 Zone Units | 137.2 ± 38.8 Zone Units | VLB/OV3 [11]: 0.91; IC50 [11]: 6.81 µM; IC50 [12]: 2.06 µM

Source: patent US5593970A, “Heterocyclic anthracycline analogs” (priority 1994, dated 1997)
